Patent US9138437B2, “Pyrimidine substituted purine compounds as kinase (S) inhibitors” (VERASTEM, INC., priority 2009, dated 2015)
≈ marks a conversion by molar mass, not a printed value. Like-named read-outs stand apart in the source and are kept apart here.

Experiments:
physchem = settings: pH 7, aqueous buffer, kinetic from dmso stock
Protocol: (§1) Compound solubility is determined in a high-throughput kinetic solubility profiling method using a 96-well format. Compound solubility is assessed using a UV/Visible Microplate Spectrophotometer (Molecular Devices SpectraMax Plus384). Vorinostat (SAHA) and Nicardipine, purchased from Sigma, are used as reference standards.
(§2) The mixture is then shaken at 600 rpm for 1.5 h and allowed to stand at room temperature for 2 h. […] The resulting supernatant (80 μL) is transferred to the UV-analysis plate and diluted with DMSO (20 μL). The samples are quantified using calibration stocks of the respective compound made in phosphate buffer/DMSO (80:20).

in vitro = settings: human, pH 7.4; for half-life: microsomes
Protocol: Verapamil, purchased from Sigma-Aldrich, is used as a reference standard in the assay. HLM are purchased from Xeno Tech (20 mg/mL in 250 mM sucrose solution). A 100 mM stock solution of potassium phosphate buffer is pre-prepared by combining 80 mL of 1M K2HPO4 and 20 mL of 1 M KH2PO4 in 900 mL of water (pH adjusted to 7.4 using diluted HCl) and stored at room temperature. K2HPO4.3H20 and KH2PO4 are obtained from Sigma Aldrich and the NADPH Regeneration System Solutions A and B from Gentest. The stop solution used to quench the reaction is a pre-prepared mixture of acetonitrile and DMSO (80:20) and is stored at 4° C. All solvents used are HPLC grade and the water used during the stock solution preparation and during LC-MS analysis is deionised using a Milli-Q system.
8 μL of the compound mix is then added to 72 μL of a pre-prepared incubation mix made up of water (2250 μL), 100 mM potassium phosphate buffer (2900 μL), NADPH Regeneration System Solution B (58 μL), NADPH Regeneration System Solution A (290 μL) and HLM (250 μL). The resulting reaction mixture (final compound concentration of 5 μM) is then incubated at 37° C. in a B. Braun Certomat H incubator after which a 50 μL aliquot is dispensed to a well on a separate plate well containing 100 μL of Stop solution. […] Each test compound is sampled multiple times and incubated for a series of time points (5, 15, 30, 45 and 60 min). Remaining compound concentration is determined by LC-MS (ABI Qtrap 3200) and comparison to a reference solution of known concentration. Stability is then expressed as a half-life in minutes (t½).

[1] = High throughput solubility assay (kinetic, UV); settings: pH 7
Protocol: as §1, §2

| half-life at 5 μM (in vitro; liver microsomes) | solubility, assessment in words [1] | Compound | solubility, assessment in words (as drug candidate) | solubility (physchem) | half-life (in vitro) | solubility, assessment in words (pH 7) |
| --- | --- | --- | --- | --- | --- | --- |
|  |  | CCC(C)n1c(Br)nc2c(-c3cnc(N)nc3)nc(N3CCOCC3)nc21 (stereo not shown) [Cmpd A] | low solubility | 44 µM (≈ 19.1 µg/mL) | > 60 min |  |
| > 60 min | low solubility | CC(C)n1c(Br)nc2c(-c3cnc(N)nc3)nc(N3CCOCC3)nc21 [Cmpd B] |  | 18 µM (≈ 7.55 µg/mL) |  |  |
|  |  | CCc1nc2c(-c3cnc(N)nc3)nc(N3CCOCC3)nc2n1C(C)C [Cmpd C] | acceptable | > 250 µM | 36 min |  |
|  |  | CCC(C)n1c(C)nc2c(-c3cnc(N)nc3)nc(N3CCOCC3)nc21 (stereo not shown) [Cmpd D] | acceptable | > 250 µM | 26 min |  |
|  |  | CCC(C)n1cnc2c(-c3cnc(N)nc3)nc(N3CCOCC3)nc21 (stereo not shown) [Cmpd E] | low solubility | 35 µM (≈ 12.4 µg/mL) | > 60 min |  |
|  |  | Cc1nc2c(-c3cnc(N)nc3)nc(N3CCOCC3)nc2n1C(C)C [Cmpd of the invention, 5-(9-isopropyl-8-methyl-2-morpholin-4-yl-9H-purin-6-yl)-pyrimidin-2-ylamine] |  |  |  | acceptable |
